Laboratory results: article doi:10.1101/2025.01.23.634542, “Convergent Agonist and Heat Activation of Nociceptor TRPM3” (bioRxiv, 2025)

Columns and labels:
[1] = system: TRPM3 mutants at the interface between the MHR1/2 domain and the rib helix; test: Agonist sensitivity of mutants at the MHR1/2 domain-rib helix interface relative to wild type; format: cell-based, rabbit; conditions: interface mutants versus wild type, maximum fold
[2] = biological target: wild-type rabbit TRPM3 (rTRPM3) (Oryctolagus cuniculus, UniProt G1T6W8); test: Whole-cell patch-clamp agonist dose-response, wild-type TRPM3 in tsA cells; format: cell-based; conditions: WT TRPM3, whole-cell current at +80 mV
[3] = system: TRPM3 CIM0216 binding site mutants; test: CIM0216-induced whole-cell currents in CIM0216 binding site mutants; format: cell-based, rabbit; conditions: whole-cell currents at +140 mV, 22 °C (Fig. 1c)
Excerpt: Figure 1: TRPM3 activation by superagonist CIM0216. a, Structure of TRPM3 in complex with CIM0216, shown in cartoon representation and viewed parallel to the membrane. CIM0216 (green) is fitted into the cryo-EM density map (right panel). One subunit is highlighted in red, and the rib helix from the adjacent subunit is highlighted in cyan. b, Close-up view of the CIM0216 binding site, detailing key interactions. c, Whole-cell currents measured in tsA cells overexpressing wild-type TRPM3 or CIM0216 binding site mutants at 22 °C. […] CIM0216-induced current amplitudes at +140 mV were calculated by subtracting the steady-state current recorded before CIM0216 application from the steady-state current recorded after CIM0216 application. Each point represents a single cell (from left to right, n = 6, 4, 5, 4, 4, 4, 4, 4, 4, 5), with bars indicating the mean. Statistical analysis was performed using one-way ANOVA with Bonferroni’s post hoc test (***P < 0.001). d, Structural comparison of CIM0216-bound activated state (red) and apo resting state (blue), superimposed using the TMD (residues 848–1119). Root-mean-square deviations (r.m.s.d.) are shown for individual domains. Black arrows indicate the approximate direction of domain movements.

[4] = system: TRPM3 primidone binding site mutants; test: Primidone inhibition of PregS-induced currents in primidone binding site mutants; format: cell-based, rabbit; conditions: PregS-induced currents with and without primidone, 22 °C (Fig. 4c)
[5] = system: wild-type TRPM3; test: Primidone inhibition of heat-activated whole-cell currents, wild-type TRPM3; format: cell-based, rabbit; conditions: WT TRPM3, heat-activated whole-cell currents at 37 °C with primidone (Fig. 4d)

wild-type rabbit TRPM3 (rTRPM3), sequence (G1T6W8 entry or part of it): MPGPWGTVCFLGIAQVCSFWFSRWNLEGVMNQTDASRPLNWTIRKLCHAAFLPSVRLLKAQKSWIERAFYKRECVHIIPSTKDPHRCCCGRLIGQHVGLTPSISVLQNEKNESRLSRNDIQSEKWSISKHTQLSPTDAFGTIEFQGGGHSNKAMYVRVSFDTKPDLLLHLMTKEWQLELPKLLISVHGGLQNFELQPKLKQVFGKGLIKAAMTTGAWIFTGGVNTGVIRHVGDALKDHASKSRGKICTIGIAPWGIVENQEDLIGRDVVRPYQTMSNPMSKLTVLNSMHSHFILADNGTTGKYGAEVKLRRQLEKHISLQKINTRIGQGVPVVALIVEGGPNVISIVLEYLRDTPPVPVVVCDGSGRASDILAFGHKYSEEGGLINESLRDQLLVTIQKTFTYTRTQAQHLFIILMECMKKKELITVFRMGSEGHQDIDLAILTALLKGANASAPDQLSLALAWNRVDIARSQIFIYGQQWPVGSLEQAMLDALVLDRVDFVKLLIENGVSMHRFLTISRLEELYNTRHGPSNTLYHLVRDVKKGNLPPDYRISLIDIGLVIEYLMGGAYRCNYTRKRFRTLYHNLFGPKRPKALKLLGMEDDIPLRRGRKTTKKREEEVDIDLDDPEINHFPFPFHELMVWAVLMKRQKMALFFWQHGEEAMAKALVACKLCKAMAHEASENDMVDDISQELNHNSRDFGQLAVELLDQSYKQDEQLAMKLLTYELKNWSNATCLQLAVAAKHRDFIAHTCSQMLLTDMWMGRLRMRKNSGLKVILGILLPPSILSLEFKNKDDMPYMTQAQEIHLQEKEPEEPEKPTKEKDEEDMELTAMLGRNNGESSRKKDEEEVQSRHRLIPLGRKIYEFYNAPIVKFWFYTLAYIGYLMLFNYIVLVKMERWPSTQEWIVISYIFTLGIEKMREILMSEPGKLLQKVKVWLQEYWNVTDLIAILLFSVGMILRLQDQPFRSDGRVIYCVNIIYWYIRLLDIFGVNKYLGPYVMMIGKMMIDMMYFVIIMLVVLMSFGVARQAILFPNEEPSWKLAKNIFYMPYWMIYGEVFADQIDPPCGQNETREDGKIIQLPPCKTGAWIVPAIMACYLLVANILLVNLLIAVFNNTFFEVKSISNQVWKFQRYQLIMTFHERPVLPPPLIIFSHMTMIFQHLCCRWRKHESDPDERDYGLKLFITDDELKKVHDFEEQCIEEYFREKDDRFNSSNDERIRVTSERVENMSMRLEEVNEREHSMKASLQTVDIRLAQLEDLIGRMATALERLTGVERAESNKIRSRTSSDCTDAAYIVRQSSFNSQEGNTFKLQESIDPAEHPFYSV

Compound | Higher sensitivity of mutants to agonist in dose-response experiments [1] | EC50 [2] | Effect of alanine substitutions at key binding residues on CIM0216-evoked currents [3] | Effect of alanine substitutions at key binding residues on the inhibitory effect [4] | Effect on heat-induced channel activation [5]
Cc1cc(NC(=O)C(c2ccccc2)N2CCCc3ccccc32)no1 (stereo not drawn) [CIM0216] | up to 3 fold | 700 nM | diminished or abolished |  | 
CCC1(c2ccccc2)C(=O)NCNC1=O [primidone] |  |  |  | markedly reduced or abolished | effectively suppresses heat-induced channel activation
pregnenolone sulfate [PregS] | up to 13 fold |  |  |  | 
